Numbers after ± are expanded uncertainties.
What was measured:
[1] = 298.15 K; 101.33 kPa; Liquid; Vibrating tube method
[2] = refractive index (Na D-line) (dimensionless); details: 298.15 K; 101.33 kPa; Liquid; Standard Abbe refractometry

C=CC(C)(O)CCC=C(C)C (stereo not given) [3,7-dimethyl-1,6-octadien-3-ol]
mass density [1]: 856.83 ± 1.4 kg/m3
refractive index [2]: 1.45961 ± 0.00068

CCCCCC[n+]1ccn(C)c1.O=S(=O)([N-]S(=O)(=O)C(F)(F)F)C(F)(F)F
mass density [1]: 1372.09 ± 0.28 kg/m3
refractive index [2]: 1.42879 ± 0.00033

CCCCCCCCCCn1cc[n+](C)c1.O=S(=O)([N-]S(=O)(=O)C(F)(F)F)C(F)(F)F
mass density [1]: 1278.4 ± 0.23 kg/m3
refractive index [2]: 1.43584 ± 0.00033

CCn1cc[n+](C)c1.O=S(=O)([N-]S(=O)(=O)C(F)(F)F)C(F)(F)F
mass density [1]: 1518.91 ± 0.36 kg/m3
refractive index [2]: 1.42298 ± 0.00068

C=C(C)[C@H]1CC=C(C)CC1 [(R)-1-methyl-4-(1-methylethenyl)cyclohexene]
mass density [1]: 838.68 ± 1.4 kg/m3
refractive index [2]: 1.47081 ± 0.00068
